US20230042367A1, “METHODS AND COMPOSITIONS FOR TREATING CANCERS HAVING F-BOX AND WD-REPEAT PROTEIN 7 (FBXW7) ALTERATIONS AND/OR CYCLIN L1 (CCNL1) GAIN OR AMPLIFICATION” (THE GOVERNING COUNCIL OF THE UNIVERSITY OF TORONTO, priority 2019, published 2023)
Entries after “also recorded” stand apart in the source; their conditions may differ.

Experiments:
FBXW7^−/− HPAF-II cells = assay: Dose-response assay (CellTiter-Glo), FBXW7 knockout HPAF-II cells compared with wildtype; assay type: cell-based
Experimental: (§1) HPAF-II, C33A, SiHa HEK293T cells (ATCC) were grown in DMEM (4.6 g/L D-glucose, L-glutamine)+10% fetal bovine serum+5% Anti-Anti at 37° C. and 5% CO2. Caski cells were grown in RPMI-1640+10% fetal bovine serum+5% Anti-Anti at 37° C. and 5% CO2. For serum starvation, regular growth media was removed, and replaced with DMEM (4.6 g/L D-glucose, L-glutamine)+5% Anti-Anti for 18 h. CHIR99021 was used at 4 nM.
(§2) HPAF-II mutant cells (APC-truncation, AXIN-knockout, FBXW7-knockout) were transfected via electroporation using the Neon system (Thermo) under the following conditions; 2 μg of DNA (sgRNA construct pX330) 1150V, 30 ms and 2 pulses. Cells were allowed to recover for 2 days before the addition of 100 nM LGK-974 to enrich for mutations driving Wnt pathway activation. Cell lines were validated for editing using TIDE (tracking of insertions and deletions (Brinkman et al 2014).
(§3) All cells were seeded in triplicate at 2500 cells/well. The following day, a dose-response treatment of OTS964 (Cayman Chemicals) or AZD6738 (SelleckChem). At 3d and 7d of treatment, respectively cell viability was determined using CellTiter-Glo (Promega) as per manufacturer's instructions.

[1] = tested on: C-33-A cells (FBXW7 mutation); assay: Dose-response assay in cervical cancer cell line panel (Ca-Ski, DoTc2-4510, SiHa, C-33-A); assay type: cell-based
Experimental: as §1, §3

wildtype HPAF-II cells = assay: Dose-response assay (CellTiter-Glo), wildtype HPAF-II cells; assay type: cell-based; conditions: FIG. 9
Experimental: as §1, §3

[2] = tested on: Cervical cancer patient-derived cancer organoids; assay: Viability of patient-derived cervical cancer organoids (Cell Titer Glo); conditions: 7 days treatment, a subset of organoid models, FIGS. 10 and 11
Experimental: Cervical cancer patient-derived cancer organoids were treated with dose-response of OTS964 for 7 days. Following treatment, organoids were imaged, and viability was measured using Cell Titer Glo.

HPAF-II cells [3] = assay: Clonogenic assay of LGK974 sensitivity in HPAF-II wild type and knockout cells; assay type: cell-based
Experimental: As validation, each of the genes discovered in this LGK974 positive selection screen were knocked-out in HPAF-II cells and the sensitivity to LGK974 was determined using clonogenic assays. The assay tested HPAF-II wild type cells, HPAF-II wild type cells treated with LGK974, HPAF-II cells with the gene APC knocked out and treated with LGK974, HPAF-II cells expressing a degradation resistant mutant (DegR)-ßCatenin and treated with LGK974, HPAF-II cells with the AXIN gene knocked out and treated with LGK974, and HPAF-II cells with the FBXW7 gene knocked out and treated with LGK974.
as §2

HPAF-II cells [4] = assay: LGK974 treatment of RNF43 mutant HPAF-II cells (proliferation, LD90 dose for CRISPR screen); assay type: cell-based
Excerpt: HPAF-II cells harbor a mutation in RNF43 a negative regulator of the Wnt signaling pathway and as a result these cells are exquisitely dependent on the presence of Wnt ligands. […] Genome wide CRISPR-Cas9 screen was used to identify genes underlying PORCN inhibitor sensitivity, specifically, gene knockouts mediating LGK974 resistance. To do this, the RNF43 mutant cell line HPAF-II was transduced with the genome-wide TKO gRNA library and treated with a LD90 dose of the PORCN inhibitor LGK974 (Liu et al 2013). Under these conditions, the vast majority of cells undergo cell cycle arrest, but a few clones bypassed this process and emerged during the selection. Next generation sequencing of the resistant clones identified gRNA targeting several known negative regulators of Wnt signalling—including APC and AXIN1 that re-activated the ßcatenin pathway distal to the receptor complex. […]
HPAF-II cells were infected with the Toronto knockout library version 1 (TKOv1)—a pooled sgRNA lentiviral library (Hart et al2015) at a multiplicity of infection of 0.3, in the presence of 8 μg/ml polybrene (Sigma) for 24 h. […] Sequenced gRNAs were mapped to the TKOv1 library using MaGECK 0.5.3, and read counts were normalized by total reads per sample before averaging biological replicates and determining gRNA enrichment.

CCNL1 = assay: Western blot of CCNL1 levels after GSK3 inhibitor treatment; assay type: cell-based; conditions: CHIR99021 used at 4 nM, FIG. 6
Experimental: Using the methods of Example 8, a co-expression analysis followed by cycloheximide chase illustrated the effect of FBXW7 expression on CCNL1 stability. […] Mutation in the substrate-recognition domain of FBXW7 lead to a robust stabilization of CCNL1 levels.
as §1
All samples were lysed in 4× Laemmli Sample Buffer (50 mM Tris-HCl pH 6.8, 2% SDS, 10% glycerol, 1% β-mercaptoethanol, 12.5 mM EDTA, 0.02% bromophenol blue). Lysates were sonicated, boiled, and centrifuged to pellet insoluble material. Approx 10 μg were loaded per sample on a 4-15% SDS-PAGE Stain-Free TGX BioRad precast gel. Gels were run at 150V for approximately 60 minutes. Gels were transferred to methanol-activated PVDF at 90V for 120 minutes. Membranes were blocked in 5% milk in Tris-buffered Saline (pH 7.4)+1% Tween-20 (TBS-T) for 1 hr, and incubated with corresponding primary antibodies overnight. […]

C[C@@H]1COCCN1c1cc(C2([S@](C)(=N)=O)CC2)nc(-c2ccnc3[nH]ccc23)n1 [AZD6738, (R)-imino(methyl)(1-(6-((R)-3-methylmorpholino)-2-(1H-pyrrolo[2,3-b]pyridin-4-yl)pyrimidin-4-yl)cyclopropyl)-I6-sulfanone]
cell viability under AZD6738, FBXW7^−/− vs wildtype HPAF-II (FBXW7^−/− HPAF-II cells; 7d treatment, FIG. 15B): much more susceptible; also recorded: hypersensitivity
enhanced activity in C33A compared to Caski and SiHa cell lines ([1]; AZD6738, FIG. 15D): 4-6 fold
cell viability under AZD6738 in cervical cancer cell line panel ([1]; C33A, FIG. 15D): highest susceptibility; also recorded: highly susceptible

Cc1cc(O)c(-c2ccc([C@@H](C)CN(C)C)cc2)c2c1[nH]c(=O)c1sccc12 [OTS964, 9-[4-[(1R)-2-(dimethylamino)-1-methylethyl]phenyl]-8-hydroxy-6-methyl-thieno[2,3-c]quinolin-4(5H)-one]
sensitivity of FBXW7 mutant cells to CDK11 inhibition relative to wildtype (FBXW7^−/− HPAF-II cells; FBXW7^−/− vs wildtype HPAF-II cells, proliferation, FIG. 9): at least 5 times
proliferation response to OTS964, FBXW7 knockout vs wild type cells (FBXW7^−/− HPAF-II cells; HPAF-II, 3d treatment, FIG. 9): striking increase in sensitivity; also recorded: hypersensitive
dose at which inhibition in wildtype cells was seen (only at the highest dose tested) (wildtype HPAF-II cells): 1 µM
OTS964 dose response in cervical cancer cell line panel ([1]; C-33-A vs Ca-Ski, DoTc2-4510, SiHa, FIG. 14A): hypersensitive
relative viability of cervical cancer organoids under OTS964 [2]: sensitive

Cc1cc(-c2ncc(CC(=O)Nc3ccc(-c4cnccn4)cn3)cc2C)ccn1 [LGK974]
growth under LGK974 after knockout of APC and AXIN1 (HPAF-II cells [3]; APC and AXIN1 knockout HPAF-II): fully rescued the growth
resistance to LGK974 after knockout of FBXW7 (HPAF-II cells [3]; FBXW7 knockout HPAF-II): partial resistance
growth of HPAF-II wildtype cells under LGK974 (HPAF-II cells [3]; wildtype (RNF43 mutation)): robustly arrested the growth
LD90 dose (HPAF-II cells [4]; HPAF-II cells, positive selection screen): 20 nM
effect of LGK974 treatment on HPAF-II cells (HPAF-II cells [4]; RNF43 mutant HPAF-II): cell cycle arrest and strong inhibition of proliferation

Cc1c[nH]c(-c2cnc(NCCNc3ccc(C#N)cn3)nc2-c2ccc(Cl)cc2Cl)n1 [CHIR99021]
CCNL1 levels after treatment with GSK3 inhibitor (CCNL1): increased levels of CCNL1
